Assay results as given in PMC8400343, “Synthesis and Evaluation of the Antidepressant-like Properties of HBK-10, a Novel 2-Methoxyphenylpiperazine Derivative Targeting the 5-HT1A and D2 Receptors” (Pharmaceuticals, 2021).
Where two headings read alike, the source gives them in different places.

Experiments:
dopamine D2 receptor = target: T1, dopamine D2 receptor (Homo sapiens, UniProt P14416); assay: Aequorin-based calcium mobilization functional assay, CHO-K1 cells; assay type: cell-based
T1 construct: expressed in transfected cells; host or cells: recombinant CHO-K1 co-expressing mitochondrially targeted aequorin and Gαqi/5
T1 sequence (P14416 whole entry): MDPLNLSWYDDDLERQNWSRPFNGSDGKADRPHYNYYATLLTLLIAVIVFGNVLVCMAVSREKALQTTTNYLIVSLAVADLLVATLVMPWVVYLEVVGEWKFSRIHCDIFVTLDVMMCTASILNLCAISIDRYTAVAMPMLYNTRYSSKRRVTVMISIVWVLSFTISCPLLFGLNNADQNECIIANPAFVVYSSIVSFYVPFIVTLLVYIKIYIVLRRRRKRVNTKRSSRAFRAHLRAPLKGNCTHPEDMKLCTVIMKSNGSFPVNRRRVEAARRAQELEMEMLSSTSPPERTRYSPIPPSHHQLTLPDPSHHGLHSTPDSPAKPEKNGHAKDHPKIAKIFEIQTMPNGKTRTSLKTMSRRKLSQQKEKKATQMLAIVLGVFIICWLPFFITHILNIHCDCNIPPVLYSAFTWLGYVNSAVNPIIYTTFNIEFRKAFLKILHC
Protocol: Therefore, using in vitro functional assay, we next investigated the type of the interaction with this receptor.
Tested and reference compounds were dissolved in dimethyl sulfoxide (DMSO) at a concentration of 1 mM. Serial dilutions were prepared in 96-well microplate in assay buffer, and 8-to-10 concentrations were tested. A cellular aequorin-based functional assay was performed with recombinant CHO-K1 cells expressing mitochondrially targeted aequorin, human GPCR, and the promiscuous G protein Gαqi/5 for D2 receptor. After thawing, cells were transferred to assay buffer (DMEM/HAM’s F12 with 0.1% protease-free BSA) and centrifuged. The cell pellet was resuspended in assay buffer, and coelenterazine h was added at final concentrations of 5 µM. […] After 1 h of incubation, 50 µL of the cell’s suspension was dispensed using automatic injectors built into the radiometric and luminescence plate counter MicroBeta2 LumiJET (PerkinElmer, USA) into white opaque 96-well microplates preloaded with test compounds. Immediate light emission generated following calcium mobilization was recorded for 30 s. In antagonist mode, after 30 min of incubation, the reference agonist was added to the above assay mix and light emission was recorded again.

[1] = MTT viability assay in HepG2 cells; assay type: cell-based; details: human, % of control, read-out: Viability (% ± SEM)
Protocol: To investigate the lack of hepatotoxicity of HBK-10 at 25 µM concentration, we used HepG2 cells. Viability was measured using 3-(4,5-dimethyl-thiazol-2-yl)-2,5-diphenyltetrazolium (MTT) assay. We chose 25 µM since such concentration was used in metabolic stability studies.
To investigate the preliminary hepatic safety of HBK-10 at the concentration used in metabolic stability study, a human hepatocellular carcinoma cell line—HepG2 (HB-8065TM, ATCC, Manassas, VA, USA) was used in the study. HepG2 cells were cultured in standard conditions (37 °C, 5% CO2, 95% humidity) in appropriate culture medium (according to manufacturer procedure), supplemented with 10% fetal bovine serum (FBS, Gibco, Thermo Fisher Scientific, Waltham, MA, USA) and antibiotics (1% streptomycin/penicillin mixture; Sigma-Aldrich, Steinheim, Germany). Cells were seeded in 96-well plates at density of 1 × 10^4 per well. After 24 h cells were treated with two doses of HBK-10 (5 and 25 µM, solvent—PBS) and incubated for additional 24 h. Following the incubation cells viability was measured with MTT assay. For this purpose, MTT reagent (3-(4,5-dimethylthiazol-2-yl)-2,5-diphenyltetrazolium bromide) (Sigma Aldrich, Steinheim, Germany) was added to each well at the concentration 0.5 mg/mL. After 4 h incubation at 37 °C, the medium was aspirated, and formazan crystals produced in the cells were dissolved in DMSO. Then the absorbance of solution was determined at 570 nm (A570) on plate reader (Spectra iD3 Max, Molecular Devices; San Jose, CA, USA). Viability (% of control) was determined by dividing A570 of experimental wells by of A570 of control wells × 100%.

[2] = system: corticosterone-treated mice; assay: Locomotor activity in corticosterone-treated mice; assay type: in vivo, mouse; details: 4 min
Protocol: The locomotor activity of mice was measured as previously described. We used photoresistor actometers (Ugo Basile, Italy) connected to a counter for the recording of light-beam interruptions. Mice were placed individually in cages for 30 min, and the number of crossings of the light beams was recorded as the locomotor activity for 4 min.
Mice were injected with corticosterone (sc, 20 mg/kg) at random times during the light phase for 21 days. The dose and route of administration of corticosterone were based on our previous study. Control mice received saline containing 0.1% dimethyl sulfoxide (DMSO) and 0.1% Tween (sc). For the next 21 days, 30 min before the corticosterone injection, mice were injected with saline, HBK-10 (0.625 or 1.25 mg/kg), or fluoxetine (15 mg/kg) (ip). Twenty-four hours after the last injection, animals were tested in the forced swim test and locomotor activity test (Figure 8).

[3] = target: T2, human serotonin 5-HT1A receptor (Homo sapiens, UniProt P08908); assay: Functional assay, inhibition of cAMP production, CHO-K1 cells; assay type: cell-based
T2 construct: expressed in transfected cells; host or cells: CHO-K1 (cryopreserved, whole cells)
T2 sequence (P08908 1-422): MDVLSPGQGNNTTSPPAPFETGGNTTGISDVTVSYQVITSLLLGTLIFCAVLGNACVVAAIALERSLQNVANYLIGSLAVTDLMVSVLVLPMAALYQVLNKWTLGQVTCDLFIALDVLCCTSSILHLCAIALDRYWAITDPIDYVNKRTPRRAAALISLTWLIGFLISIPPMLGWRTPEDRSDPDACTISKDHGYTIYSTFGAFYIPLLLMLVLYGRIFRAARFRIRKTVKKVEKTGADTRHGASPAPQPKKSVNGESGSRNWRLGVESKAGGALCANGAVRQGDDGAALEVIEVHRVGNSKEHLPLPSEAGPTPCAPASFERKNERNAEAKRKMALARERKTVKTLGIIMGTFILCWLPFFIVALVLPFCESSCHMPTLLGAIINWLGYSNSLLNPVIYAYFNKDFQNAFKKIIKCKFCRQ
Protocol: Tested and reference compounds were dissolved in dimethyl sulfoxide (DMSO) at a concentration of 10 mM. Serial dilutions were prepared in 96-well microplate in assay buffer, and 8 to 10 concentrations were tested. […] Thawed cells were resuspended in stimulation buffer (HBSS, 5 mM HEPES, […], and 0.1% BSA at pH 7.4) at 2 × 10^5 cells/mL. The 10 µL of cell suspension was added to tested compounds with 10 µM forskolin. Samples were loaded onto a white opaque half area 96-well microplate. […] The agonist and antagonist were added simultaneously. Cell stimulation was performed for 40 min at room temperature. After incubation, cAMP measurements were performed with homogeneous TR-FRET immunoassay using the LANCE Ultra cAMP kit (PerkinElmer, Waltham, MA, USA). Ten microliters of EucAMP Tracer Working Solution and 10 µl of ULight-anti-cAMP Tracer Working Solution were added, mixed, and incubated for 1 h. The TR-FRET signal was read on an EnVision microplate reader (PerkinElmer, USA). IC50 and EC50 were determined by nonlinear regression analysis using GraphPad Prism 6.0 software.

[4] = CHO-K1, read-out: Emax %, agonist mode
[5] = read-out: pIC50 ± SEM, antagonist mode (converted)

With CCC(CN1CCN(c2ccccc2OC)CC1)NCCCOc1c(C)cccc1C.Cl.Cl (centres unmarked) [HBK-10, N-(3-(2,6-dimethylphenoxy)propyl)-1-(4-(2-methoxyphenyl)piperazin-1-yl)butan-2-amine dihydrochloride] the Emax (dopamine D2 receptor; [4]) was 9%, the “Kb, fold lower than Kb of chlorpromazine” value (dopamine D2 receptor; D2, antagonist mode) was 3.1 fold and the Kb (dopamine D2 receptor; D2, antagonist mode, Cheng–Prusoff equation) was 2.76 nM. It also gave an IC50 (dopamine D2 receptor; [5]) of 9.33 nM, a viability at 24 h, 1 µM ([1]; HBK-10 1 μM) of 102 ± 3.3% and a viability at 24 h, 5 µM ([1]; HBK-10 5 μM) of 109 ± 0.9%. For the same compound, the viability at 24 h, 25 µM ([1]; HBK-10 25 μM) was 99 ± 2.4%, the “Number of Crossings ± SEM” value ([2]; 0.625 mg/kg ip chronic) was 431.1 ± 47.92 and the “Number of Crossings ± SEM” value ([2]; 1.25 mg/kg ip chronic) was 453.9 ± 41.27. For the same compound, the “Kb, fold lower compared with NAN-190” value ([3]; 5-HT1A, antagonist mode) was 10 fold, the Kb ([3]; 5-HT1A, antagonist mode, Cheng–Prusoff equation) was 64 nM and the Emax [3, 4] was 2%. For the same compound, the Emax ([3]; CHO-K1, read-out: Emax %, antagonist mode) was 0% and the IC50 [3, 5] was 191 nM.
